The source of these data is PMC8453114 (Journal of molecular biology, 2021).

In the first assay the target is T1, HTLV-1 myr(−)MA (Human T-cell leukemia virus type I, UniProt Q9QR99). Put plainly: 1H NMR liposome. It is filed as binding.
In general, Kd refers to the equilibrium constant for the complex coming apart. High values mean a looser complex, low ones a tighter complex. `CCCCCCCC/C=C\CCCCCCCC(=O)O[C@H](COC(=O)CCCCCCCCCCCCCCC)COP(=O)(O)OC[C@H](N)C(=O)O` [POPS, 1-palmitoyl-2-oleoyl-sn-glycero-3-phospho-L-serine] came in with a Kd of 118 ± 16 µM.

The compound `CCCCCCCCCCCCCCCC(=O)OC[C@H](COP(=O)(O)O[C@@H]1[C@H](O)[C@H](OP(=O)(O)O)[C@@H](O)[C@H](OP(=O)(O)O)[C@H]1O)OC(=O)CCCCCCCCCCCCCCC` [diC16-PI(3,5)P2, dipalmitoyl-phosphatidylinositol 3,5-bisphosphate] gave a dissociation constant (Kd) of 32 ± 2 µM.

The target of the next assay is T1, HTLV-1 myr(−)MA. Put plainly: 1H-15N HSQC NMR titration. In kind it is binding.
Regarding `O=P(O)(O)O[C@@H]1[C@H](O)[C@H](O)[C@@H](OP(=O)(O)O)[C@H](OP(=O)(O)O)[C@H]1O` [IP3, inositol 1,4,5-trisphosphate], binding was characterised by a dissociation constant (Kd) of 338 ± 42 µM.

In turn, `O=P(O)(O)O[C@H]1[C@H](OP(=O)(O)O)[C@@H](OP(=O)(O)O)[C@H](OP(=O)(O)O)[C@@H](OP(=O)(O)O)[C@H]1OP(=O)(O)O` [IP6, inositol hexakisphosphate] gave a Kd of 23 ± 11 µM.

Regarding `CCCC(=O)OC[C@H](COP(=O)(O)O[C@@H]1[C@H](O)[C@H](O)[C@@H](OP(=O)(O)O)[C@H](OP(=O)(O)O)[C@H]1O)OC(=O)CCC` [diC4-PI(4,5)P2], the Kd was found to be 306 ± 30 µM.

The compound `CCCCCC(=O)OC[C@H](COP(=O)(O)O[C@@H]1[C@H](O)[C@H](O)[C@@H](OP(=O)(O)O)[C@H](OP(=O)(O)O)[C@H]1O)OC(=O)CCCCC` [diC6-PI(4,5)P2] displayed an equilibrium dissociation constant (Kd) of 195 ± 19 µM.
